target: human GPR43 (Homo sapiens (Human), UniProt O15552); assay: Ca-Flux functional assay: determination of agonist/positive allosteric modulator (PAM) activity; assay type: cell-based; conditions: CHO-K1 Gα16 cells stably expressing human GPR43; compound added with EC20 sodium acetate; intracellular Ca2+ by FLIPR; does not distinguish agonist from PAM
Method in brief: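 CHO-K1 Gα16 cells stably expressing human GPR43, loaded with Calcium 5 dye 1 h; compounds (10-point half-log from 10 μM) added with sodium acetate at EC20. FLIPR calcium signal gave EC50, two wells per point; agonists and PAMs not distinguished.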

Chain of human GPR43 (O15552 whole entry): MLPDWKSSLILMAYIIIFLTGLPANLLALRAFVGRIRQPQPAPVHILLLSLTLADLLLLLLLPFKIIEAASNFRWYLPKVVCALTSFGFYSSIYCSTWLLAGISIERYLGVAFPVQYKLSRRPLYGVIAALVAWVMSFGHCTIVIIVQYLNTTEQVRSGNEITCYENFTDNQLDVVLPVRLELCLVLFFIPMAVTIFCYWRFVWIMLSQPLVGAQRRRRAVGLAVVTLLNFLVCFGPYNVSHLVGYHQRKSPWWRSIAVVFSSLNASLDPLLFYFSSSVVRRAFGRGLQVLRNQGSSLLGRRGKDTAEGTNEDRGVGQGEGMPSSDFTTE

**Q.** For `COc1ccc(S(=O)(=O)c2c(N)[nH]c3c(N4CCOC(C)C4)ncnc23)cc1Cl` (stereo not drawn) [Example 123, 7-(3-chloro-4-methoxybenzenesulfonyl)-4-(2-methylmorpholin-4-yl)-5H-pyrrolo[3,2-d]pyrimidin-6-amine], which EC50 is on record?
**A.** Its EC50 is 115 nM.

**Q.** How did the EC50 turn out when `Nc1[nH]c2c(-c3ccccc3)ncnc2c1S(=O)(=O)c1ccccc1` [Example 9, 7-(benzenesulfonyl)-4-phenyl-5H-pyrrolo[3,2-d]pyrimidin-6-amine] was run?
**A.** The EC50 was 48 nM.

**Q.** `Cc1nc(N2C[C@@H](C)O[C@H](C)C2)c2[nH]c(N)c(S(=O)(=O)c3ccccc3F)c2n1` [Example 203, 4-[(2R,6R)-2,6-dimethylmorpholin-4-yl]-7-(2-fluorobenzenesulfonyl)-2-methyl-5H-pyrrolo[3,2-d]pyrimidin-6-amine] was tested. Which EC50 did it give?
**A.** The EC50 was 11 nM.

**Q.** Which EC50 does the source give for `CCN(Cc1cnn(C)c1)c1ncnc2c(S(=O)(=O)c3ccccc3)c(N)[nH]c12` [Example 64, 7-(benzenesulfonyl)-4-N-ethyl-4-N-[(1-methyl-1H-pyrazol-4-yl)methyl]-5H-pyrrolo[3,2-d]pyrimidine-4,6-diamine] here?
**A.** Its EC50 is 2350 nM.

**Q.** Which EC50 does the source give for `Nc1[nH]c2c(C3CCCCC3)ncnc2c1S(=O)(=O)c1ccccc1` [Example 3, 7-(benzenesulfonyl)-4-cyclohexyl-5H-pyrrolo[3,2-d]pyrimidin-6-amine] here?
**A.** Its EC50 is 43 nM.

**Q.** Which EC50 does the source give for `Cc1nc(N2CCOC(C)C2)c2[nH]c(N)c(S(=O)(=O)c3ccccc3F)c2n1` (stereo not drawn) [Example 176, 7-(2-fluorobenzenesulfonyl)-2-methyl-4-(2-methylmorpholin-4-yl)-5H-pyrrolo[3,2-d]pyrimidin-6-amine] here?
**A.** The EC50 was 8 nM.

**Q.** Which EC50 does the source give for `CCC1CN(c2ncnc3c(S(=O)(=O)c4ccc(OC)cc4)c(N)[nH]c23)CCO1` (stereo not drawn) [Example 190, 4-(2-ethylmorpholin-4-yl)-7-(4-methoxybenzenesulfonyl)-5H-pyrrolo[3,2-d]pyrimidin-6-amine] here?
**A.** The EC50 was 125 nM.

**Q.** Which EC50 does the source give for `Nc1[nH]c2c(N3CCC(F)CC3)ncnc2c1S(=O)(=O)c1ccccc1` [Example 46, 7-(benzenesulfonyl)-4-(4-fluoropiperidin-1-yl)-5H-pyrrolo[3,2-d]pyrimidin-6-amine] here?
**A.** The EC50 was 153 nM.

**Q.** For `Cc1nc(N2CCO[C@@H](C(F)(F)F)C2)c2[nH]c(N)c(S(=O)(=O)c3cccc(F)c3F)c2n1` [Example 286, 7-(2,3-difluorobenzenesulfonyl)-2-methyl-4-[(2R)-2-(trifluoromethyl)morpholin-4-yl]-5H-pyrrolo[3,2-d]pyrimidin-6-amine], which EC50 is on record?
**A.** The EC50 was 3 nM.

**Q.** How did the EC50 turn out when `CCC1(C)CN(c2ncnc3c(S(=O)(=O)c4ccccc4)c(N)[nH]c23)CCO1` (stereo not drawn) [Example 221, 7-(benzenesulfonyl)-4-(2-ethyl-2-methylmorpholin-4-yl)-5H-pyrrolo[3,2-d]pyrimidin-6-amine] was run?
**A.** The EC50 was 104 nM.

**Q.** How did the EC50 turn out when `Cc1ccc(-c2ncnc3c(S(=O)(=O)c4ccccc4)c(N)[nH]c23)cc1` [Example 104, 7-(benzenesulfonyl)-4-(4-methylphenyl)-5H-pyrrolo[3,2-d]pyrimidin-6-amine] was run?
**A.** The EC50 was 59 nM.

**Q.** `Cc1nc(N2CCOC(C)C2)c2[nH]c(N)c(S(=O)(=O)c3c(F)cccc3F)c2n1` (stereo not drawn) [Example 263, 7-(2,6-difluorobenzenesulfonyl)-2-methyl-4-(2-methylmorpholin-4-yl)-5H-pyrrolo[3,2-d]pyrimidin-6-amine] was tested. Which EC50 did it give?
**A.** The EC50 was 6 nM.

**Q.** How did the EC50 turn out when `CC1(COc2ncnc3c(S(=O)(=O)c4ccccc4)c(N)[nH]c23)CC1` [Example 173, 7-(benzenesulfonyl)-4-[(1-methylcyclopropyl)methoxy]-5H-pyrrolo[3,2-d]pyrimidin-6-amine] was run?
**A.** The EC50 was 364 nM.

**Q.** Which EC50 does the source give for `Nc1[nH]c2c(N3CCCC(n4cccn4)C3)ncnc2c1S(=O)(=O)c1ccccc1` (stereo not drawn) [Example 114, 7-(benzenesulfonyl)-4-[3-(1H-pyrazol-1-yl)piperidin-1-yl]-5H-pyrrolo[3,2-d]pyrimidin-6-amine] here?
**A.** The EC50 was 1110 nM.

**Q.** `Nc1[nH]c2c(N3CCCOCC3)ncnc2c1S(=O)(=O)c1ccccc1` [Example 82, 7-(benzenesulfonyl)-4-(1,4-oxazepan-4-yl)-5H-pyrrolo[3,2-d]pyrimidin-6-amine] was tested. Which EC50 did it give?
**A.** The EC50 was 1150 nM.

**Q.** With `Nc1[nH]c2c(C3CCCC3)ncnc2c1S(=O)(=O)c1ccccc1F` [Example 88, 4-cyclopentyl-7-(2-fluorobenzenesulfonyl)-5H-pyrrolo[3,2-d]pyrimidin-6-amine] as the compound, how does the EC50 read?
**A.** The EC50 was 21 nM.

**Q.** `Cc1nc(N2CCO[C@H](C(F)(F)F)C2)c2[nH]c(N)c(S(=O)(=O)c3cccc(F)c3F)c2n1` [Example 285, 7-(2,3-difluorobenzenesulfonyl)-2-methyl-4-[(2S)-2-(trifluoromethyl)morpholin-4-yl]-5H-pyrrolo[3,2-d]pyrimidin-6-amine] was tested. Which EC50 did it give?
**A.** Its EC50 is 2 nM.

**Q.** For `Nc1[nH]c2c(C3CCCCC3)ncnc2c1S(=O)(=O)c1ccc(F)cc1` [Example 27, 4-cyclohexyl-7-[(4-fluorobenzene)sulfonyl]-5H-pyrrolo[3,2-d]pyrimidin-6-amine], which EC50 is on record?
**A.** The EC50 was 89 nM.

**Q.** Which EC50 does the source give for `CN(Cc1ccccn1)c1ncnc2c(S(=O)(=O)c3ccccc3)c(N)[nH]c12` [Example 95, 7-(benzenesulfonyl)-4-N-methyl-4-N-(pyridin-2-ylmethyl)-5H-pyrrolo[3,2-d]pyrimidine-4,6-diamine] here?
**A.** Its EC50 is 7130 nM.

**Q.** `COc1ccc(F)c(S(=O)(=O)c2c(N)[nH]c3c(N4CCOC(C)C4)nc(C)nc23)c1` (stereo not drawn) [Example 267, 7-(2-fluoro-5-methoxybenzenesulfonyl)-2-methyl-4-(2-methylmorpholin-4-yl)-5H-pyrrolo[3,2-d]pyrimidin-6-amine] was tested. Which EC50 did it give?
**A.** The EC50 was 4 nM.

**Q.** `Cc1nc(N2C[C@@H](C)O[C@H](C)C2)c2[nH]c(N)c(S(=O)(=O)c3cccc(F)c3)c2n1` [Example 200, 4-[(2R,6R)-2,6-dimethylmorpholin-4-yl]-7-(3-fluorobenzenesulfonyl)-2-methyl-5H-pyrrolo[3,2-d]pyrimidin-6-amine] was tested. Which EC50 did it give?
**A.** Its EC50 is 25 nM.

**Q.** With `Nc1[nH]c2c(C3CCCCC3)ncnc2c1S(=O)(=O)c1ccc(F)c(F)c1` [Example 60, 4-cyclohexyl-7-(3,4-difluorobenzenesulfonyl)-5H-pyrrolo[3,2-d]pyrimidin-6-amine] as the compound, how does the EC50 read?
**A.** The EC50 was 182 nM.

**Q.** `Cc1nc(N2C[C@@H](C)O[C@@H](C)C2)c2[nH]c(N)c(S(=O)(=O)c3ccccc3)c2n1` [Example 138, 7-(benzenesulfonyl)-4-[(2R,6S)-2,6-dimethylmorpholin-4-yl]-2-methyl-5H-pyrrolo[3,2-d]pyrimidin-6-amine] was tested. Which EC50 did it give?
**A.** Its EC50 is 6 nM.

**Q.** Which EC50 does the source give for `Cc1nc(OC2CCCC2)c2[nH]c(N)c(S(=O)(=O)c3ccccc3)c2n1` [Example 257, 7-(benzenesulfonyl)-4-(cyclopentyloxy)-2-methyl-5H-pyrrolo[3,2-d]pyrimidin-6-amine] here?
**A.** The EC50 was 100 nM.

**Q.** Which EC50 does the source give for `CC1(C)CN(c2nncc3c(S(=O)(=O)c4ccccc4F)c(N)[nH]c23)CCO1` [Example 234, 7-(2,2-dimethylmorpholin-4-yl)-3-(2-fluorobenzenesulfonyl)-1H-pyrrolo[2,3-d]pyridazin-2-amine] here?
**A.** Its EC50 is 69 nM.

**Q.** How did the EC50 turn out when `CN(CC1OCCO1)c1ncnc2c(S(=O)(=O)c3ccccc3)c(N)[nH]c12` [Example 93, 7-(benzenesulfonyl)-4-N-(1,3-dioxolan-2-ylmethyl)-4-N-methyl-5H-pyrrolo[3,2-d]pyrimidine-4,6-diamine] was run?
**A.** The EC50 was 9510 nM.

**Q.** With `Cc1nc(OC2CCOC(C)(C)C2)c2[nH]c(N)c(S(=O)(=O)c3ccccc3)c2n1` (stereo not drawn) [Example 253, 7-(benzenesulfonyl)-4-[(2,2-dimethyloxan-4-yl)oxy]-2-methyl-5H-pyrrolo[3,2-d]pyrimidin-6-amine] as the compound, how does the EC50 read?
**A.** The EC50 was 133 nM.

From patent US10059713B2 (Takeda Pharmaceutical Company Limited, priority 2014, dated 2018)
